Assay results reported in PubChem BioAssay AID1963863 (Molecular Pharmacology Branch, DTP, NCI, 2024).

Tested on: 931267-113-T-J1-PDC KRAS spheroid with HUVEC/MSC, viability
Test: Anticancer human tumor 931267-113-T-J1-PDC patient-derived colon adenocarcinoma cell line growth inhibition [KRAS2]
Settings: for IC50: curve of first compound; for viability, T/C: stronger effect = lower value
Source text: Multicellular complex tumor spheroid response to RAS pathway inhibitors in combination with a targeted agents in patient-derived cell lines with oncogenic KRAS variants from multiple cancer types
A high-throughput screen of multi-cell type tumor spheroids was designed to identify active combinations of targeted small molecules and KRAS pathway inhibitors. Complex spheroids include a stromal component modeled by human endothelial cells (HUVEC) and fibroblasts modeled by human mesenchymal stem cells (MSCs). The concentration ranges selected for each drug and investigational agent were based upon clinically achievable concentrations if the clinical Cmax of the agent was known.
Compounds. The drugs and investigational agents: BI-3406 (NSC825286), BAY-293 (NSC824723), batoprotafib (TNO155; NSC825523), sotorasib (AMG 510; NSC818433), MRTX1257 (NSC819558), elimusertib (BAY 1895344; NSC800525), molibresib (GSK525762; NSC774829), temuterkib (LY3214996; NSC803410), venetoclax (NSC766270), alisertib (NSC759677), olaparib (NSC753686), talazoparib (NSC767125), erdafitinib (NSC781556), ipatasertib (NSC767898), cabozantinib (NSC761068), nintedanib (NSC756659), abemaciclib (NSC768073), docetaxel (NSC628503), trametinib (NSC758246), and sapanisertib (NSC764658) were obtained from the National Cancer Institute (NCI) Developmental Therapeutics Program Chemical Repository. The FDA-approved anticancer drug set is available from the Developmental Therapeutics Program. […] The stock solutions were prepared in dimethyl sulfoxide (DMSO, Sigma-Aldrich, St. Louis, MO, cat. D2650) at 800-fold the tested concentration and stored at -70 degrees C prior to their use. All drugs and investigational agents were tested over a range starting from a high concentration at or near the clinical Cmax and decreasing in half-log increments. If the clinical Cmax for an agent had not been determined, the highest concentration tested was 10 microM.
Cell Culture. All cells were maintained in an incubator at 37 degrees C and 5% CO2 with 95% humidity. The PDC lines were cultured according to standard operating procedures established by the NCI PDMR (https://pdmr.cancer.gov/sops/default.htm). Briefly, all PDCs were thawed and cultured in Matrigel-coated flasks prepared with a working solution of 1X Ham's F-12 nutrient mix, without supplementation (Invitrogen, Waltham, MA, cat. 11765054), 100 U/mL penicillin-streptomycin (Invitrogen, cat. 15140122), and 2.5% Matrigel (Corning Inc., Corning, NY, cat. 354248) for the first three passages. All PDCs were cultured in complete DMEM/F-12 media containing advanced DMEM/F-12 (Invitrogen, cat. 12634028), 4.9% defined fetal bovine serum, heat inactivated (HyClone Laboratories Inc., Logan, UT, cat. SH30070.03HI), 389 ng/mL hydrocortisone (Sigma-Aldrich, cat. H4001), 9.7 ng/mL human EGF recombinant protein (Invitrogen, cat. PHG0313), 23.4 microg/mL adenine (Sigma-Aldrich, cat. A2786), 97.3 U/mL penicillin-streptomycin (Invitrogen, cat. 15140122), 1.9 mM L-glutamine (Invitrogen, cat. 25030081), and 9.7 microM Y-27632 dihydrochloride (Tocris Bioscience, Bristol, United Kingdom, cat. 1254). The PDCs were cultured in complete DMEM/F12 media without 9.7 microM Y-27632 dihydrochloride for at least two passages prior to the screen. The established cell line HOP-62 was cultured in RPMI 1640 medium, HEPES (Invitrogen, cat. 22400105) with 10% defined fetal bovine serum (HyClone Laboratories Inc., cat. SH30070.03) and 2 mM L-glutamine (Invitrogen, cat. 25030081). The pooled donor HUVEC were cultured in endothelial cell growth medium 2 (PromoCell, Heidelberg, Germany, cat. C-22011) and the hMSC were cultured in mesenchymal stem cell growth medium 2 (PromoCell, cat. C-28009). For all experiments, HUVEC and hMSC were used at passages </=5, while the malignant cell lines were used at passages </=15. […]

[1] = second compound 0.1 µM, first compound 0.0316 µM
[2] = second compound 0.1 µM, first compound 0.1 µM
[3] = second compound 0.1 µM, first compound 0.316 µM
[4] = second compound 0.1 µM, first compound 1 µM
[5] = second compound 0.1 µM, first compound 3.16 µM
[6] = second compound 0.1 µM, first compound 10 µM
[7] = second compound 0.316 µM, first compound 0.0316 µM
[8] = second compound 0.316 µM, first compound 0.1 µM
[9] = second compound 0.316 µM, first compound 0.316 µM
[10] = second compound 0.316 µM, first compound 1 µM
[11] = second compound 0.316 µM, first compound 3.16 µM
[12] = second compound 0.316 µM, first compound 10 µM
[13] = second compound 1 µM, first compound 0.0316 µM
[14] = second compound 1 µM, first compound 0.1 µM
[15] = second compound 1 µM, first compound 0.316 µM
[16] = second compound 1 µM, first compound 1 µM
[17] = second compound 1 µM, first compound 3.16 µM
[18] = second compound 1 µM, first compound 10 µM
[19] = second compound 3.16 µM, first compound 0.0316 µM
[20] = second compound 3.16 µM, first compound 0.1 µM
[21] = second compound 3.16 µM, first compound 0.316 µM
[22] = second compound 3.16 µM, first compound 1 µM
[23] = second compound 3.16 µM, first compound 3.16 µM
[24] = second compound 3.16 µM, first compound 10 µM
[25] = second compound 10 µM, first compound 0.0316 µM
[26] = second compound 10 µM, first compound 0.1 µM
[27] = second compound 10 µM, first compound 0.316 µM
[28] = second compound 10 µM, first compound 1 µM
[29] = second compound 10 µM, first compound 3.16 µM
[30] = second compound 10 µM, first compound 10 µM
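Also: compound exposure lasted 7 days before the readout.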
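For viability, T/C in this document: 100% = DMSO vehicle control viability.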

SMILES | IC50 (second compound 0.1 µM) [µM] | IC50 (second compound 0.316 µM) [µM] | IC50 (second compound 1 µM) [µM] | IC50 (second compound 3.16 µM) [µM] | viability, T/C [1] [%] | viability, T/C [2] [%] | viability, T/C [3] [%] | viability, T/C [4] [%] | viability, T/C [5] [%] | viability, T/C [7] [%] | viability, T/C [8] [%] | viability, T/C [9] [%] | viability, T/C [10] [%] | viability, T/C [11] [%] | viability, T/C [13] [%] | viability, T/C [14] [%] | viability, T/C [15] [%] | viability, T/C [16] [%] | viability, T/C [17] [%] | viability, T/C [19] [%] | also measured
CC1OCC2(CCN(c3cnc(Sc4ccnc(N)c4Cl)c(N)n3)CC2)C1N (stereo not given) + C=CC(=O)N1CCN(c2nc(=O)n(-c3c(C)ccnc3C(C)C)c3nc(-c4c(O)cccc4F)c(F)cc23)C(C)C1 | > 10 | > 10 | > 10 | > 10 | 86.7 | 73.4 | 69.9 | 64.8 | 67.5 | 119 | 92.3 | 83.3 | 73.6 | 80.4 | 118 | 87.8 | 79 | 64.1 | 78.7 | 99.7 | IC50 (second compound 10 µM): > 10 µM; viability, T/C [6]: 77.4%; viability, T/C [12]: 83.5%; viability, T/C [18]: 78.9%; viability, T/C [20]: 91.8%; viability, T/C [21]: 100%; viability, T/C [22]: 87.3%; viability, T/C [23]: 70.1%; viability, T/C [24]: 82.3%; viability, T/C [25]: 92.3%; viability, T/C [26]: 74.8%; viability, T/C [27]: 79.7%; viability, T/C [28]: 75.6%; viability, T/C [29]: 74.1%; viability, T/C [30]: 67%
Cn1nccc1Nc1nccc(-c2cc3c(s2)C(C)(C)N(CCN2CCOCC2)C3=O)n1 + C=CC(=O)N1CCN(c2nc(=O)n(-c3c(C)ccnc3C(C)C)c3nc(-c4c(O)cccc4F)c(F)cc23)C(C)C1 | 0.568 | 0.601 | 0.598 | 0.611 | 94.2 | 90.4 | 63.4 | 38.2 | 5.19 | 109 | 84.2 | 74.9 | 34 | 8.86 | 82 | 104 | 72.8 | 30.6 | 6.74 | 93.3 | IC50 (second compound 10 µM): 0.703 µM; viability, T/C [6]: 5.01%; viability, T/C [12]: 5.22%; viability, T/C [18]: 6.41%; viability, T/C [20]: 101%; viability, T/C [21]: 81.1%; viability, T/C [22]: 26.6%; viability, T/C [23]: 9.57%; viability, T/C [24]: 9.73%; viability, T/C [25]: 91.2%; viability, T/C [26]: 95.3%; viability, T/C [27]: 74.9%; viability, T/C [28]: 39.3%; viability, T/C [29]: 14.1%; viability, T/C [30]: 11%
CC(=O)OC12COC1CC(O)C1(C)C(=O)C(O)C3=C(C)C(OC(=O)C(O)C(NC(=O)OC(C)(C)C)c4ccccc4)CC(O)(C(OC(=O)c4ccccc4)C21)C3(C)C (stereo not given) + C=CC(=O)N1CCN(c2nc(OCC3CCCN3C)nc3c2CCN(c2cccc4cccc(C)c24)C3)CC1CC#N | > 3.16 | > 3.16 | 1.3 | > 3.16 | 99.4 | 89.6 | 82.7 | 72.1 | 82.4 | 109 | 94.7 | 75.8 | 76.7 | 75.5 | 91.4 | 77 | 86 | 54.6 | 34.5 | 104 | IC50 (second compound 0.0316 µM): > 3.16 µM; viability, T/C (second compound 0.0316 µM, first compound 0.01 µM): 87.4%; viability, T/C (second compound 0.0316 µM, first compound 0.0316 µM): 86.6%; viability, T/C (second compound 0.0316 µM, first compound 0.1 µM): 76.2%; viability, T/C (second compound 0.0316 µM, first compound 0.316 µM): 91.5%; viability, T/C (second compound 0.0316 µM, first compound 1 µM): 128%; viability, T/C (second compound 0.0316 µM, first compound 3.16 µM): 78.6%; viability, T/C (second compound 0.1 µM, first compound 0.01 µM): 106%; viability, T/C (second compound 0.316 µM, first compound 0.01 µM): 126%; viability, T/C (second compound 1 µM, first compound 0.01 µM): 84.5%; viability, T/C (second compound 3.16 µM, first compound 0.01 µM): 83.5%; viability, T/C [20]: 102%; viability, T/C [21]: 84.8%; viability, T/C [22]: 91.7%; viability, T/C [23]: 90.1%
